Several values for one entry are separate records, joined by “and”; a condition that tells them apart may be missing. Identical values can stand only once. Toxic doses and inconclusive results are not listed. Cut-off read from the data, not from the text of the source: active = T/C of 150% or more; inactive = T/C below 125%.
System: L1210 leukemia ip in BDF1 mice, survival T/C
Assay: NCI In Vivo Anticancer Drug Screen. Data for tumor model L1210 Leukemia (intraperitoneal) in B6D2F1 (BDF1) mice
Details: endpoint: mean survival time, higher = longer survival
Method in brief: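 In this screen, tumor-bearing mice given compound are compared to those given vehicle, and their survival values are reported as a treated-to-control quotient.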

[1] = dose: 100.0 mg/kg/injection, schedule: Q01DX009 (ip), vehicle: saline with Tween-80
[2] = dose: 200.0 mg/kg/injection, schedule: Q01DX009 (ip), vehicle: saline with Tween-80
[3] = dose: 400.0 mg/kg/injection, schedule: Q01DX009 (ip), vehicle: saline with Tween-80
[4] = dose: 100.0 mg/kg/injection, schedule: Q01DX009 (ip), vehicle: Klucel (hydroxypropylcellulose) (HPC)
[5] = dose: 100.0 mg/kg/injection, schedule: Q04DX003 (ip), vehicle: Klucel (hydroxypropylcellulose) (HPC)
[6] = dose: 200.0 mg/kg/injection, schedule: Q01DX009 (ip), vehicle: Klucel (hydroxypropylcellulose) (HPC)
[7] = dose: 200.0 mg/kg/injection, schedule: Q04DX003 (ip), vehicle: Klucel (hydroxypropylcellulose) (HPC)
[8] = dose: 400.0 mg/kg/injection, schedule: Q04DX003 (ip), vehicle: Klucel (hydroxypropylcellulose) (HPC)
[9] = dose: 50.0 mg/kg/injection, schedule: Q04DX003 (ip), vehicle: saline
[10] = dose: 100.0 mg/kg/injection, schedule: Q01DX001 (ip), vehicle: saline
[11] = dose: 200.0 mg/kg/injection, schedule: Q01DX001 (ip), vehicle: saline
[12] = dose: 100.0 mg/kg/injection, schedule: Q04DX002 (ip), vehicle: Klucel (hydroxypropylcellulose) (HPC)
[13] = dose: 200.0 mg/kg/injection, schedule: Q04DX002 (ip), vehicle: Klucel (hydroxypropylcellulose) (HPC)
[14] = dose: 400.0 mg/kg/injection, schedule: Q04DX002 (ip), vehicle: Klucel (hydroxypropylcellulose) (HPC)
[15] = dose: 100.0 mg/kg/injection, schedule: Q04DX003 (ip), vehicle: saline with Tween-80
[16] = dose: 200.0 mg/kg/injection, schedule: Q04DX003 (ip), vehicle: saline with Tween-80
[17] = dose: 400.0 mg/kg/injection, schedule: Q04DX003 (ip), vehicle: saline with Tween-80
[18] = dose: 100.0 mg/kg/injection, schedule: Q04DX003 (ip), vehicle: saline
[19] = dose: 200.0 mg/kg/injection, schedule: Q04DX003 (ip), vehicle: saline
[20] = dose: 400.0 mg/kg/injection, schedule: Q04DX003 (ip), vehicle: saline
[21] = dose: 100.0 mg/kg/injection, schedule: Q04DX003 (ip), vehicle: other

Measured: T/C

N=C(N)SC12CC3CC(CC(C3)C1)C2
inactive: dose: 10.0 mg/kg/injection, schedule: Q04DX002 (ip), vehicle: Klucel (hydroxypropylcellulose) (HPC) 94 % of control | dose: 20.0 mg/kg/injection, schedule: Q04DX002 (ip), vehicle: Klucel (hydroxypropylcellulose) (HPC) 87 % of control | dose: 40.0 mg/kg/injection, schedule: Q04DX002 (ip), vehicle: Klucel (hydroxypropylcellulose) (HPC) 94 % of control

Cc1nc2ccccc2c(=O)n1NC(=O)c1cc([N+](=O)[O-])cc([N+](=O)[O-])c1
inactive: [1] 90 % of control | [2] 97 % of control | [3] 93 % of control

c1ccc([CH2][Sn]([c]2ccccc2)([c]2ccccc2)[c]2ccccc2)cc1
inactive: dose: 50.0 mg/kg/injection, schedule: Q01DX009 (ip), vehicle: Klucel (hydroxypropylcellulose) (HPC) 100 % of control | [4] 104 % of control | [5] 101 % of control | [6] 98 % of control | [7] 98 % of control | [8] 101 % of control

CC1=C(Cl)C(Cl)(Cl)C(=O)C(=O)C1(Cl)Cl
inactive: dose: 6.25 mg/kg/injection, schedule: Q01DX009 (ip), vehicle: saline sonified 100 % of control | dose: 6.25 mg/kg/injection, schedule: Q04DX003 (ip), vehicle: Klucel (hydroxypropylcellulose) (HPC) 100 % of control | dose: 12.5 mg/kg/injection, schedule: Q01DX009 (ip), vehicle: saline sonified 102 % of control | dose: 12.5 mg/kg/injection, schedule: Q04DX003 (ip), vehicle: Klucel (hydroxypropylcellulose) (HPC) 95 % of control | dose: 25.0 mg/kg/injection, schedule: Q01DX009 (ip), vehicle: saline sonified 92 % of control | dose: 25.0 mg/kg/injection, schedule: Q04DX003 (ip), vehicle: Klucel (hydroxypropylcellulose) (HPC) 95 % of control

CCC1CC(C)C(=O)NC1=O (stereo not given)
inactive: dose: 12.5 mg/kg/injection, schedule: Q01DX009 (ip), vehicle: saline 95 % of control | dose: 12.5 mg/kg/injection, schedule: Q04DX003 (ip), vehicle: saline 91 % of control | dose: 25.0 mg/kg/injection, schedule: Q01DX009 (ip), vehicle: saline 100 % of control | dose: 25.0 mg/kg/injection, schedule: Q04DX003 (ip), vehicle: saline 110 % of control | dose: 50.0 mg/kg/injection, schedule: Q01DX009 (ip), vehicle: saline 95 % of control | [9] 96 % of control

S=P(Oc1cc(Cl)c(Cl)cc1Cl)(N1CCN(c2ccccc2)CC1)N1CCN(c2ccccc2)CC1
inactive: [10] 90 % of control | [11] 90 % of control | dose: 400.0 mg/kg/injection, schedule: Q01DX001 (ip), vehicle: saline 88 % of control

CCCCSC(N)=O
inactive: [1] 103 % of control | [12] 94 % of control | [2] 105 % of control | [13] 97 % of control | [3] 119 % of control | [14] 90 % of control

CCSC(SCC)C1OC(C)(C)OC1C1COC(C)(C)O1 (stereo not given)
inactive: dose: 100.0 mg/kg/injection, schedule: Q01DX001 (ip), vehicle: carboxymethylcellulose (CMC) 103 % of control | [15] 96 % of control | dose: 200.0 mg/kg/injection, schedule: Q01DX001 (ip), vehicle: carboxymethylcellulose (CMC) 103 % of control | [16] 94 % of control | dose: 400.0 mg/kg/injection, schedule: Q01DX001 (ip), vehicle: carboxymethylcellulose (CMC) 103 % of control | [17] 91 % of control

CCCCCCCCCCC(=O)CC
inactive: [1] 102 % of control | [2] 104 % of control | [3] 113 % of control

CCCCCCCCCCCCCCCC1=NN(c2ccc([N+](=O)[O-])cc2)C(=O)C1
inactive: [5] 94 % of control | [7] 89 % of control | [8] 100 % of control

CC(C)N=Cc1cc(Cl)ccc1O.CC(C)N=Cc1cc(Cl)ccc1O.[Co]
inactive: [9] 94 % of control | [18] 102 % of control | [19] 105 % of control

O=C(Nc1cc(C2=NCCN2)cc(C2=NCCN2)c1)c1ccc(C(=O)Nc2cc(C3=NCCN3)cc(C3=NCCN3)c2)cc1
inactive: dose: 0.37 mg/kg/injection, schedule: Q01DX Z (ip), vehicle: methylcellulose (MC) 94 % of control | dose: 0.75 mg/kg/injection, schedule: Q01DX Z (ip), vehicle: methylcellulose (MC) 111 % of control | dose: 1.5 mg/kg/injection, schedule: Q01DX Z (ip), vehicle: methylcellulose (MC) 101 % of control | dose: 2.0 mg/kg/injection, schedule: Q01DX Z (ip), vehicle: carboxymethylcellulose (CMC) 108 % of control | dose: 3.0 mg/kg/injection, schedule: Q01DX Z (ip), vehicle: methylcellulose (MC) 95 % of control | dose: 4.0 mg/kg/injection, schedule: Q01DX Z (ip), vehicle: carboxymethylcellulose (CMC) 92 % of control | dose: 15.0 mg/kg/injection, schedule: Q01DX Z (ip), vehicle: carboxymethylcellulose (CMC) 92 % of control

c1ccc(N2CCN(c3ccccc3)C2C2CO2)cc1 (stereo not given)
inactive: [18] 95 % of control | [19] 97 % of control | [20] 98 % of control

O=P1(Cc2ccccc2)CC(Br)C(Br)C1 (stereo not given)
inactive: [21] 101 % of control | dose: 200.0 mg/kg/injection, schedule: Q04DX003 (ip), vehicle: other 101 % of control | dose: 400.0 mg/kg/injection, schedule: Q04DX003 (ip), vehicle: other 101 % of control

NC(C(=O)O)C(C(=O)O)c1ccccc1 (stereo not given)
inactive: [12] 101 % of control | [13] 101 % of control | [14] 93 % of control

COc1cc(C(=O)NNS(=O)(=O)c2ccccc2)cc(OCc2ccccc2)c1OC
inactive: dose: 100.0 mg/kg/injection, schedule: Q04DX002 (ip), vehicle: saline 97 % of control | dose: 200.0 mg/kg/injection, schedule: Q04DX002 (ip), vehicle: saline 97 % of control | dose: 400.0 mg/kg/injection, schedule: Q04DX002 (ip), vehicle: saline 95 % of control

Oc1ccc2ccccc2c1-c1nc2ccccc2s1
inactive: dose: 25.0 mg/kg/injection, schedule: Q04DX003 (ip), vehicle: other 94 % of control and 111 % of control | dose: 50.0 mg/kg/injection, schedule: Q04DX003 (ip), vehicle: other 97 % of control and 88 % of control | [21] 91 % of control

CC(=O)OC1CCC(C(C)(C)C)CC1 (stereo not given)
inactive: [1] 98 % of control | [2] 95 % of control

CCCCSc1ncc(C)c(NC)n1
inactive: dose: 25.0 mg/kg/injection, schedule: Q01DX Z (ip), vehicle: methylcellulose (MC) 92 % of control | dose: 50.0 mg/kg/injection, schedule: Q01DX Z (ip), vehicle: methylcellulose (MC) 95 % of control

COc1ccc(NC(=O)O/N=C2\CN(S(=O)(=O)c3ccc(C)cc3)CCc3ccccc32)cc1
inactive: [5] 91 % of control | [7] 94 % of control | [8] 96 % of control

Oc1ccc(CNc2nn[nH]n2)cc1
inactive: [15] 94 % of control | [16] 96 % of control | [17] 96 % of control

O=C1NCCO1
inactive: [9] 97 % of control | [4] 103 % of control | [5] 105 % of control | [18] 102 % of control and 106 % of control | [6] 105 % of control | [7] 103 % of control | [19] 95 % of control and 92 % of control and 103 % of control | dose: 400.0 mg/kg/injection, schedule: Q01DX009 (ip), vehicle: Klucel (hydroxypropylcellulose) (HPC) 103 % of control | [8] 103 % of control | [20] 103 % of control and 105 % of control

Cc1cccc(C)c1N(C=O)N=O
inactive: [10] 110 % of control | [11] 104 % of control

C/C=C1/C[N+]2(C)CCC34C(=C(C(=O)OC)C1CC32)Nc1ccc(O)cc14 (stereo not given)
inactive: dose: 6.25 mg/kg/injection, schedule: Q01DX001 (ip), vehicle: saline with Tween-80 97 % of control | dose: 12.5 mg/kg/injection, schedule: Q01DX001 (ip), vehicle: saline with Tween-80 102 % of control | dose: 25.0 mg/kg/injection, schedule: Q01DX001 (ip), vehicle: saline with Tween-80 96 % of control
